Test results as given in ChEMBL document CHEMBL3046327, “Nicotinic acid hydrazones: a novel anticonvulsant pharmacophore” (Med Chem Res, 2011).
Active and inactive are the calls of the source. The rule behind the calls is not given here.

How the values were obtained:
Mus musculus [1] = assay: Anticonvulsant activity in Mus musculus C57B/6 (mouse) assessed protection against subcutaneous pentylenetetrazole-induced seizures at 300 mg/kg, ip after 0.5 hr; format: functional, organism-based; set-up: dose 300 mg/kg
Mus musculus [2] = assay: Anticonvulsant activity in Mus musculus C57B/6 (mouse) assessed protection against subcutaneous pentylenetetrazole-induced seizures at 300 mg/kg, ip after 4 hr; format: functional, organism-based; set-up: dose 300 mg/kg
Mus musculus [3] = assay: Neurotoxicity in ip dosed Mus musculus C57B/6 (mouse) assessed motor impairment after 0.5 hr by rotarod test; format: toxicity, organism-based; conditions: in vivo
Mus musculus [4] = assay: Neurotoxicity in ip dosed Mus musculus C57B/6 (mouse) assessed motor impairment after 4 hr by rotarod test; format: toxicity, organism-based; conditions: in vivo
Mus musculus [5] = assay: Anticonvulsant activity in ip dosed Mus musculus C57B/6 (mouse) assessed protection against maximal electroshock-induced seizures after 4 hr; format: functional; conditions: C57B/6, ip, read-out: MED
Mus musculus [6] = assay: Anticonvulsant activity in ip dosed Mus musculus C57B/6 (mouse) assessed protection against maximal electroshock-induced seizures after 0.5 hr; format: functional; conditions: C57B/6, ip, read-out: MED
Mus musculus [7] = assay: Anticonvulsant activity in Mus musculus C57B/6 (mouse) assessed protection against maximal electroshock-induced seizures at 300 mg/kg, ip after 4 hr; format: functional, organism-based; set-up: dose 300 mg/kg
Rattus norvegicus [8] = organism: Rattus norvegicus; assay: Protective index, ratio of TD50 for Rattus norvegicus Sprague-Dawley (rat) to ED50 for Rattus norvegicus Sprague-Dawley (rat) assessed protection against 6 Hz psychomotor seizure by minimal clonic seizure test; format: functional
Rattus norvegicus [9] = assay: Anticonvulsant activity in po dosed Rattus norvegicus Sprague-Dawley (rat) assessed protection against 6 Hz psychomotor seizure by minimal clonic seizure test; format: functional
[10] = Neurotoxicity in po dosed Rattus norvegicus Sprague-Dawley (rat) assessed motor impairment by rotarod test; format: toxicity, organism-based; conditions: in vivo
[11] = Neurotoxicity in ip dosed Mus musculus C57B/6 (mouse) assessed motor impairment by rotarod test; format: toxicity, organism-based; conditions: in vivo
Mus musculus [12] = assay: Anticonvulsant activity in ip dosed Mus musculus C57B/6 (mouse) assessed protection against 6 Hz psychomotor seizure after 0.25 hr by minimal clonic seizure test; format: functional; conditions: C57B/6, ip, read-out: MED
Mus musculus [13] = assay: Anticonvulsant activity in ip dosed Mus musculus C57B/6 (mouse) assessed protection against 6 Hz psychomotor seizure by minimal clonic seizure test; format: functional; conditions: C57B/6, ip
Mus musculus [14] = assay: Neurotoxicity in Mus musculus C57B/6 (mouse) assessed motor impairment at 300 mg/kg, ip after 0.5 hr by rotarod test; format: toxicity, organism-based; set-up: dose 300 mg/kg, route intraperitoneal; conditions: in vivo
Mus musculus [15] = assay: Anticonvulsant activity in ip dosed Mus musculus C57B/6 (mouse) assessed protection against 6 Hz psychomotor seizure after 0.5 hr by minimal clonic seizure test; format: functional; conditions: C57B/6, ip, read-out: MED
Mus musculus [16] = organism: Mus musculus; assay: Protective index, ratio of TD50 for Mus musculus C57B/6 (mouse) to ED50 for Mus musculus C57B/6 (mouse) assessed protection against 6 Hz psychomotor seizure by minimal clonic seizure test; format: functional
Mus musculus [17] = assay: Neurotoxicity in Mus musculus C57B/6 (mouse) assessed motor impairment at 300 mg/kg, ip after 4 hr by rotarod test; format: toxicity, organism-based; set-up: dose 300 mg/kg, route intraperitoneal; conditions: in vivo
Mus musculus [18] = assay: Anticonvulsant activity in Mus musculus C57B/6 (mouse) assessed protection against maximal electroshock-induced seizures at 300 mg/kg, ip after 0.5 hr; format: functional, organism-based; set-up: dose 300 mg/kg

Row | SMILES | Activity (Mus musculus [1]) | Activity (Mus musculus [2]) | Activity (Mus musculus [3]) [mg/kg] | Activity (Mus musculus [4]) [mg/kg] | minimal effective dose (Mus musculus [5]) [mg/kg] | minimal effective dose (Mus musculus [6]) [mg/kg] | Activity (Mus musculus [7]) | Ratio TD50/ED50 (Rattus norvegicus [8]) | ED50 (Rattus norvegicus [9]) [mg/kg] | TD50 [10] [mg/kg] | TD50 [11] [mg/kg] | minimal effective dose (Mus musculus [12]) [mg/kg] | ED50 (Mus musculus [13]) [mg/kg] | Activity (Mus musculus [14]) | minimal effective dose (Mus musculus [15]) [mg/kg] | Ratio TD50/ED50 (Mus musculus [16]) | Activity (Mus musculus [17]) | Activity (Mus musculus [18])
1 | O=C1NC(=O)C(c2ccccc2)(c2ccccc2)N1 [PHENYTOIN] | inactive | inactive | 100 | 100 | 30 | 30 | – | – | – | – | – | – | – | – | – | – | – | –
2 | O=C(N/N=C/c1ccc(Cl)cc1)c1cccnc1 | inactive | inactive | – | – | – | 100 | inactive | >10 | 31.4 | > 320 | > 325 | 12.5 | 16.1 | Non-toxic | 12.5 | >20 | Non-toxic | –
3 | O=C(N/N=C/c1ccc([N+](=O)[O-])cc1)c1ccncc1 [N'-(4-NITROBENZYLIDENE)ISONICOTINOHYDRAZIDE] | inactive | inactive | – | – | – | – | inactive | – | – | – | – | – | – | Non-toxic | – | – | Non-toxic | inactive
4 | O=C(N/N=C/c1ccc(Cl)cc1)c1ccccc1 | inactive | inactive | – | – | – | – | inactive | – | – | – | – | – | – | Non-toxic | – | – | Non-toxic | inactive
5 | Cc1ccc(C(=O)N/N=C/c2ccc(Cl)cc2)cc1 | inactive | inactive | – | – | – | – | inactive | – | – | – | – | – | – | Non-toxic | – | – | Non-toxic | inactive
6 | O=C(N/N=C/c1ccccc1F)c1ccccc1 | inactive | inactive | – | – | – | – | inactive | – | – | – | – | – | – | Non-toxic | – | – | Non-toxic | inactive
7 | O=C(N/N=C/c1cccc(Br)c1)c1cccnc1 | inactive | inactive | – | – | – | 100 | inactive | – | – | – | > 520 | 35 | 47.2 | Non-toxic | 35 | >11 | Non-toxic | –
8 | O=C(N/N=C/c1ccccc1F)c1ccncc1 | inactive | inactive | – | – | – | – | inactive | – | – | – | – | – | – | Non-toxic | – | – | Non-toxic | inactive
9 | O=C(N/N=C/c1ccc(O)cc1)c1ccccc1 | inactive | inactive | – | – | – | – | inactive | – | – | – | – | – | – | Non-toxic | – | – | Non-toxic | inactive
10 | Cc1ccc(C(=O)N/N=C/c2ccc([N+](=O)[O-])cc2)cc1 | inactive | inactive | – | – | – | – | inactive | – | – | – | – | – | – | Non-toxic | – | – | Non-toxic | inactive
11 | O=C(N/N=C/c1cccc(Cl)c1)c1ccccc1 | inactive | inactive | – | – | – | – | inactive | – | – | – | – | – | – | Non-toxic | – | – | Non-toxic | inactive
12 | O=C(N/N=C/c1cccc(Br)c1)c1ccccc1 | inactive | inactive | – | – | – | – | inactive | – | – | – | – | – | – | Non-toxic | – | – | Non-toxic | inactive
13 | O=C(N/N=C/c1ccc(O)cc1)c1cccnc1 | inactive | inactive | – | – | – | – | inactive | – | – | – | – | – | – | Non-toxic | – | – | Non-toxic | inactive
14 | O=C(N/N=C/c1ccccc1Br)c1ccncc1 | inactive | inactive | – | – | – | – | inactive | – | – | – | – | – | – | Non-toxic | – | – | Non-toxic | inactive
15 | O=C(N/N=C/c1cccc(Br)c1)c1ccncc1 | inactive | inactive | – | – | – | – | inactive | – | – | – | – | – | – | Non-toxic | – | – | Non-toxic | inactive
16 | O=C(N/N=C/c1ccccc1[N+](=O)[O-])c1ccncc1 | inactive | inactive | – | – | – | – | inactive | – | – | – | – | – | – | Non-toxic | – | – | Non-toxic | inactive
17 | O=C(N/N=C/c1ccc(Cl)cc1)c1ccncc1 | inactive | inactive | 100 | 100 | 100 | 100 | – | – | – | – | – | – | – | – | – | – | – | –
18 | Cc1ccc(C(=O)N/N=C/c2cccc(Br)c2)cc1 | inactive | inactive | – | – | – | – | inactive | – | – | – | – | – | – | Non-toxic | – | – | Non-toxic | inactive
19 | O=C(N/N=C/c1cccc(Cl)c1)c1ccncc1 [N'-(3-CHLOROBENZYLIDENE)ISONICOTINOHYDRAZIDE] | inactive | inactive | – | – | – | 300 | inactive | – | – | – | – | – | – | Non-toxic | – | – | Non-toxic | –
20 | O=C(N/N=C/c1cccc(Cl)c1)c1cccnc1 | inactive | inactive | – | – | – | 300 | inactive | – | – | – | > 500 | – | 80 | Non-toxic | 40 | >6.25 | Non-toxic | –
21 | Cc1ccc(C(=O)N/N=C/c2cccc(Cl)c2)cc1 | inactive | inactive | – | – | 100 | – | – | – | – | – | – | – | – | Non-toxic | – | – | Non-toxic | inactive
